Measured values: patent US9890142B2, “PDE4 inhibitor” (Meiji Seika Pharma Co., Ltd., priority 2013, dated 2018)

system: PDE4; assay: Evaluation of PDE4 inhibition (scintillation proximity assay); type: biochemical; conditions: inhibition rate relative to control, test compound at 1 μM
Description: Test Example 1 Evaluation of PDE4 Inhibition
The PDE4 inhibitory activity was measured by using scintillation proximity assay (SPA) as follows: one in which a sample compound dissolved in dimethyl sulfoxide was diluted 10-fold with a buffer solution for reaction containing 50 mM Tris-HCl, pH 7.5, 8.3 mM MgCl2, 1.7 mM EDTA and 0.3 mg/mL bovine serum albumin (BSA) was added at 10 μL/well to a 96-well assay plate. Further, PDE4 diluted 750-fold with a buffer solution for reaction was added at 50 μL/well, then [2,8-^3H]-Adenosine-3′,5′-cyclic phosphate triethylammonium salt diluted 1000-fold with a buffer solution for reaction was added at 40 μL/well, and the plate was left standing at room temperature for 120 minutes. Thereafter, a suspension of RNA binding YSi-SPA Beads containing 200 mM ZnSO4 was added at 50 μL/well, and the plate was left standing at room temperature for 15 minutes to adsorb the enzyme reaction product onto the Beads. Thereafter, the radioactivity was measured with a liquid scintillation counter for 96-well plates. When one supplemented with only a buffer solution for reaction without adding the enzyme preparation was used as a blank and one supplemented with the enzyme preparation but supplemented with only dimethyl sulfoxide instead of the sample solution was used as a control, the inhibition rate of the test compound relative to the control was calculated according to the following calculation expression: Inhibition rate (%)={1−(Numeric value from the addition of each sample−Blank value)/(Control value−Blank value)}×100

| SMILES | PDE4 inhibitory activity (1 μM (%)) |
| --- | --- |
| C[C@H]1CNCCN1c1nc2c(C(F)(F)F)c(Cl)cc(-c3ccccn3)c2o1 [Example 82, (S)-5-Chloro-2-(2-methylpiperazin-1-yl)-7-(pyridin-2-yl)-4-(trifluoromethyl)benzoxazole] | 94% |
| C[C@H]1CNCCN1c1nc2c(C(F)(F)F)c(Cl)cc(-n3cccn3)c2o1 [Example 83, (S)-5-Chloro-2-(2-methylpiperazin-1-yl)-7-(1H-pyrazol-1-yl)-4-(trifluoromethyl)benzoxazole] | 92% |
| C[C@H]1CNCCN1c1nc2c(C(F)(F)F)c(Cl)cc(-c3nccs3)c2o1 [Example 84, (S)-5-Chloro-2-(2-methylpiperazin-1-yl)-7-(thiazol-2-yl)-4-(trifluoromethyl)benzoxazole] | 95% |
| C[C@H]1CNCCN1c1nc2cc(Cl)c(C(F)(F)F)c(-c3ccccn3)c2o1 [Example 85, (S)-5-Chloro-2-(2-methylpiperazin-1-yl)-7-(pyridin-2-yl)-6-(trifluoromethyl)benzoxazole] | 26% |
| C[C@H]1CNCCN1c1nc2c(OC(F)(F)F)c(Cl)cc(-c3ccccn3)c2o1 [Example 86, (S)-5-Chloro-2-(2-methylpiperazin-1-yl)-7-(pyridin-2-yl)-4-(trifluoromethoxy)benzoxazole] | 91% |
| C[C@H]1CNCCN1c1nc2c(OC(F)(F)F)c(Cl)cc(-c3nccs3)c2o1 [Example 87, (S)-5-Chloro-2-(2-methylpiperazin-1-yl)-7-(thiazol-2-yl)-4-(trifluoromethoxy)benzoxazole] | 96% |
| C[C@H]1CNCCN1c1nc2c(OC(F)(F)F)c(Cl)cc(-n3cccn3)c2o1 [Example 88, (S)-5-Chloro-2-(2-methylpiperazin-1-yl)-7-(1H-pyrazol-1-yl)-4-(trifluoromethoxy)benzoxazole] | 95% |
| C[C@H]1CNCCN1c1nc2c(F)c(F)cc(-c3ccccn3)c2o1 [Example 89, (S)-4,5-Difluoro-2-(2-methylpiperazin-1-yl)-7-(pyridin-2-yl)benzoxazole] | 88% |
| C[C@H]1CNCCN1c1nc2c(F)c(F)cc(-c3nccs3)c2o1 [Example 90, (S)-4,5-Difluoro-2-(2-methylpiperazin-1-yl)-7-(thiazol-2-yl)benzoxazole] | 96% |
| C[C@H]1CNCCN1c1nc2c(F)c(F)cc(-n3cccn3)c2o1 [Example 91, (S)-4,5-Difluoro-2-(2-methylpiperazin-1-yl)-7-(1H-pyrazol-1-yl)benzoxazole] | 89% |
| C[C@H]1CNCCN1c1nc2cc(Cl)c(F)c(-c3ccccn3)c2o1 [Example 92, (S)-5-Chloro-6-fluoro-2-(2-methylpiperazin-1-yl)-7-(pyridin-2-yl)benzoxazole] | 71% |
| C[C@H]1CNCCN1c1nc2cc(Cl)c(F)c(-c3nccs3)c2o1 [Example 93, (S)-5-Chloro-6-fluoro-2-(2-methylpiperazin-1-yl)-7-(thiazol-2-yl)benzoxazole] | 95% |
| C[C@H]1CNCCN1c1nc2cc(Cl)c(F)c(-n3cccn3)c2o1 [Example 94, (S)-5-Chloro-6-fluoro-2-(2-methylpiperazin-1-yl)-7-(1H-pyrazol-1-yl)benzoxazole] | 62% |
| CCCc1cc(Cl)cc2nc(N3CCNC[C@@H]3C)oc12 [Example 95, (S)-5-Chloro-2-(2-methylpiperazin-1-yl)-7-n-propylbenzoxazole] | 71% |
| C[C@H]1CNCCN1c1nc2cc(Cl)cc(C(=O)N(C)C)c2o1 [Example 96, (S)-5-Chloro-7-dimethylaminocarbonyl-2-(2-methylpiperazin-1-yl)benzoxazole] | <10% |
| CCN(CC)C(=O)c1cc(Cl)cc2nc(N3CCNC[C@@H]3C)oc12 [Example 97, (S)-5-Chloro-7-diethylaminocarbonyl-2-(2-methylpiperazin-1-yl)benzoxazole] | 10% |
| C[C@H]1CNCCN1c1nc2cc(Cl)cc(C(=O)NO)c2o1 [Example 98, (S)-5-Chloro-7-hydroxyaminocarbonyl-2-(2-methylpiperazin-1-yl)benzoxazole] | <10% |
| C[C@H]1CNCCN1c1nc2cc(Cl)cc(C(=O)O)c2o1 [Example 99, (S)-5-Chloro-7-carboxy-2-(2-methylpiperazin-1-yl)benzoxazole] | <10% |
| CNC(=O)c1cc(Cl)cc2nc(N3CCNC[C@@H]3C)oc12 [Example 100, (S)-5-Chloro-7-methylaminocarbonyl-2-(2-methylpiperazin-1-yl)benzoxazole] | 16% |
| CCNC(=O)c1cc(Cl)cc2nc(N3CCNC[C@@H]3C)oc12 [Example 101, (S)-5-Chloro-7-ethylaminocarbonyl-2-(2-methylpiperazin-1-yl)benzoxazole] | 27% |

| SMILES | PDE4 inhibitory activity (1 μM (%)) |
| --- | --- |
| C[C@H]1CNCCN1c1nc2cc(F)cc(-c3ccccn3)c2o1 [Example 102, (S)-5-Fluoro-2-(2-methylpiperazin-1-yl)-7-(pyridin-2-yl)benzoxazole] | 85% |
| C[C@H]1CNCCN1c1nc2cc(F)cc(-c3nccs3)c2o1 [Example 103, (S)-5-Fluoro-2-(2-methylpiperazin-1-yl)-7-(thiazol-2-yl)benzoxazole] | 96% |
| C[C@H]1CNCCN1c1nc2cc(F)cc(-c3ncco3)c2o1 [Example 104, (S)-5-Fluoro-2-(2-methylpiperazin-1-yl)-7-(oxazol-2-yl)benzoxazole] | 88% |
| C[C@H]1CNCCN1c1nc2cc(Cl)cc(-c3ncon3)c2o1 [Example 105, (S)-5-Chloro-2-(2-methylpiperazin-1-yl)-7-(1,2,4-oxadiazol-3-yl)benzoxazole] | 61% |
| C[C@H]1CNCCN1c1nc2cc(Cl)cc(C3=NCCO3)c2o1 [Example 106, (S)-5-Chloro-7-(4,5-dihydro-oxazol-2-yl)-2-(2-methylpiperazin-1-yl)benzoxazole] | 42% |
| COCc1cc(Cl)cc2nc(N3CCNC[C@@H]3C)oc12 [Example 107, (S)-5-Chloro-7-(methoxymethyl)-2-(2-methylpiperazin-1-yl)benzoxazole] | 66% |
| C[C@H]1CNCCN1c1nc2cc(Cl)cc(-c3ccon3)c2o1 [Example 108, (S)-5-Chloro-7-(isoxazol-3-yl)-2-(2-methylpiperazin-1-yl)benzoxazole] | 66% |
| C[C@H]1CNCCN1c1nc2cc(Cl)cc(-c3ccno3)c2o1 [Example 109, (S)-5-Chloro-7-(isoxazol-5-yl)-2-(2-methylpiperazin-1-yl)benzoxazole] | 61% |
| C[C@H]1CNCCN1c1nc2cc(Cl)cc(Br)c2o1 [Example 110, (S)-7-Bromo-5-chloro-2-(2-methylpiperazin-1-yl)benzoxazole] | 57% |
| C[C@H]1CNCCN1c1nc2cc(C#N)cc(-c3ccccn3)c2o1 [Example 111, (S)-5-Cyano-2-(2-methylpiperazin-1-yl)-7-(pyridin-2-yl)benzoxazole] | 83% |
| C[C@H]1CNCCN1c1nc2cc(C#N)cc(-c3nccs3)c2o1 [Example 112, (S)-5-Cyano-2-(2-methylpiperazin-1-yl)-7-(thiazol-2-yl)benzoxazole] | 94% |
| C[C@H]1CNCCN1c1nc2cc(C#N)cc(-c3ncco3)c2o1 [Example 113, (S)-5-Cyano-2-(2-methylpiperazin-1-yl)-7-(oxazol-2-yl)benzoxazole] | 71% |
| Cc1cc(-c2ccccn2)c2oc(N3CCNC[C@@H]3C)nc2c1 [Example 114, (S)-5-methyl-2-(2-methylpiperazin-1-yl)-7-(pyridin-2-yl)benzoxazole] | 77% |
| Cc1cc(-c2nccs2)c2oc(N3CCNC[C@@H]3C)nc2c1 [Example 115, (S)-5-methyl-2-(2-methylpiperazin-1-yl)-7-(thiazol-2-yl)benzoxazole] | 91% |
| Cc1cc(-c2ncco2)c2oc(N3CCNC[C@@H]3C)nc2c1 [Example 116, (S)-5-methyl-2-(2-methylpiperazin-1-yl)-7-(oxazol-2-yl)benzoxazole] | 80% |
| C[C@H]1CNCCN1c1nc2c(C(F)(F)F)c(F)cc(-c3ccccn3)c2o1 [Example 117, (S)-5-Fluoro-2-(2-methylpiperazin-1-yl)-7-(pyridin-2-yl)-4-(trifluoromethyl)benzoxazole] | 88% |
| C[C@H]1CNCCN1c1nc2c(C(F)(F)F)c(F)cc(-c3nccs3)c2o1 [Example 118, (S)-5-Fluoro-2-(2-methylpiperazin-1-yl)-7-(thiazol-2-yl)-4-(trifluoromethyl)benzoxazole] | 99% |
| C[C@H]1CNCCN1c1nc2c(C(F)(F)F)c(F)cc(-n3cccn3)c2o1 [Example 119, (S)-5-Fluoro-2-(2-methylpiperazin-1-yl)-7-(1H-pyrazol-1-yl)-4-(trifluoromethyl)benzoxazole] | 91% |
| C[C@H]1CNCCN1c1nc2c(F)c(Cl)c(F)c(-c3ccccn3)c2o1 [Example 120, (S)-5-Chloro-4,6-difluoro-2-(2-methylpiperazin-1-yl)-7-(pyridin-2-yl)benzoxazole] | 41% |
